Assay results as given in patent US20220411372A1, “SMALL-MOLECULE INHIBITORS FOR THE B-CATENIN/B-CELL LYMPHOMA 9 PROTEIN-PROTEIN INTERACTION” (H. Lee Moffitt Cancer Center and Research Institute, Inc., priority 2019, published 2022).

Molecular target: T1, β-catenin/BCL9 PPI (Homo sapiens, UniProt P35222)
T1 construct: Full-length β-catenin (residues 1-781) were cloned into a pET-28b vector; made in house; host or cells: E. coli BL21 DE3 (β-catenin); BCL9 peptide synthesized by InnoPep Inc
T1 sequence (P35222 1-781): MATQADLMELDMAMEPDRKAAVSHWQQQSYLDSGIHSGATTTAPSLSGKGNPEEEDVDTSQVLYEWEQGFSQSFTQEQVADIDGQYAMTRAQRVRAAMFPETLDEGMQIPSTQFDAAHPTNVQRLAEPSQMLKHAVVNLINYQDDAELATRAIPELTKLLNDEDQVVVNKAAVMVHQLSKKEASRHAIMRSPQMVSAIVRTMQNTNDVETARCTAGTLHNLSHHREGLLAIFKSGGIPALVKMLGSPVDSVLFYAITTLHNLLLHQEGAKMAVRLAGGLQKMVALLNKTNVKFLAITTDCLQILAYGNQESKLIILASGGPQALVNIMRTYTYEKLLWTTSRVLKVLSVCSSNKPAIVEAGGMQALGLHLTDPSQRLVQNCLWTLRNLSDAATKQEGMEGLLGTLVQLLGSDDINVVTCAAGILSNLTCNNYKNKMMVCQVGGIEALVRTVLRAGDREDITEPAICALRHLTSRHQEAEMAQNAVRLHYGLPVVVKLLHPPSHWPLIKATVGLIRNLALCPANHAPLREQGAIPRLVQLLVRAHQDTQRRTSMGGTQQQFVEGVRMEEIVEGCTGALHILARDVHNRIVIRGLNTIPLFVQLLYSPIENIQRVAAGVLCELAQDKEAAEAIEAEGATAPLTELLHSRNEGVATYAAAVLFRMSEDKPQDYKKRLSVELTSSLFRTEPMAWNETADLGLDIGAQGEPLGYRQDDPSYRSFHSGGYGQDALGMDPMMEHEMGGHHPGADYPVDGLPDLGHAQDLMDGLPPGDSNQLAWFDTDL
Test: AlphaScreen competitive inhibition assay of the β-catenin/BCL9 PPI
Format: binding
Conditions: Table 2, inhibitors 15-26; read-out: Ki
Experimental: AlphaScreen Assays of β-Catenin and BCL9 Interaction. Experiments were performed in white opaque 384-well plates from PerkinElmer (Waltham, Mass.), and the samples were read on a Synergy 2 plate reader (Biotek, Winooski, Vt.) with excitation at 680 nm and emission at 570 nm. The standard AlphaScreen protocol was used with a sensitivity setting of 200. All dilutions were made in 1× assay buffer containing 25 mM Hepes (pH 7.4), 100 mM NaCl, 0.01% Triton X-100 and 0.1% BSA to minimize nonspecific interactions.
For the β-catenin/BCL9 assay, 5 nM biotinylated BCL9 and 40 nM His6-tagged β-catenin were incubated in assay buffer at 4° C. for 30 min. For the β-catenin/E-cadherin assay, 10 nM biotinylated human E-cadherin, and 40 nM His6-tagged human β-catenin were added and incubated in assay buffer at 4° C. for 30 min. Different concentrations of the tested inhibitor were added and incubated in 20 μL assay buffer at 4° C. for another 1 h. All of the assay plates were covered and gently mixed on an orbital shaker. The donor and acceptor beads were then added to the plates to a final concentration of 10 μg/mL in […]. The mixture was incubated for 1 h at 4° C. before detection. The IC50 value was determined by nonlinear least-square analysis of GraphPad Prism 5.0. […] All of the experiments were performed in triplicate and carried out in the presence of 1% DMSO for small-molecule inhibitors. Each compound was assayed at least by two independent experiments. The results were expressed as mean±standard deviation. The inhibitor selectivity for β-catenin/BCL9 over β-catenin/E-canderin interactions was defined as the ratio of the respective Ki value of β-catenin/E-cadherin interactions over that of β-catenin/BCL9 interactions.

| Compound | Ki |
| --- | --- |
| CC(C)c1ccc(COC(=O)[C@@H]2CCCN(c3cccc(OC(C)(C)C(=O)N4CCNCC4)c3)C2)cc1 [Compound 15, (R)-4-(2-(3-(3-(((4-isopropylbenzyl)oxy)carbonyl)piperidin-1-yl)phenoxy)-2-methylpropanoyl)piperazin-1-ium chloride] | ≤ 10 µM |
| CC(C)c1ccc(COC(=O)[C@H]2CCCN(c3cccc(OC(C)(C)C(=O)N4CCNCC4)c3)C2)cc1 [Compound 16, (S)-4-(2-(3-(3-(((4-isopropylbenzyl)oxy)carbonyl)piperidin-1-yl)phenoxy)-2-methylpropanoyl)piperazin-1-ium chloride] | ≤ 10 µM |
| CC(C)c1ccc(CNC(=O)[C@@H]2CCCN(c3cccc(OC(C)(C)C(=O)N4CCNCC4)c3)C2)cc1 [Compound 17, (R)-4-(2-(3-(3-((4-isopropylbenzyl)carbamoyl)piperidin-1-yl)phenoxy)-2-methylpropanoyl)piperazin-1-ium chloride] | ≤ 10 µM |
| CC(C)c1ccc(CNC(=O)[C@H]2CCCN(c3cccc(OC(C)(C)C(=O)N4CCNCC4)c3)C2)cc1 [Compound 18, (S)-4-(2-(3-(3-((4-isopropylbenzyl)carbamoyl)piperidin-1-yl)phenoxy)-2-methylpropanoyl)piperazin-1-ium chloride] | ≤ 30 µM |
| CC(C)c1ccc(CN(C)C(=O)[C@@H]2CCCN(c3cccc(OC(C)(C)C(=O)N4CCNCC4)c3)C2)cc1 [Compound 19, (R)-4-(2-(3-(3-((4-isopropylbenzyl)(methyl)carbamoyl)piperidin-1-yl)phenoxy)-2-methylpropanoyl)piperazin-1-ium chloride] | ≤ 30 µM |
| CC(C)c1ccc(CN(C)C(=O)[C@H]2CCCN(c3cccc(OC(C)(C)C(=O)N4CCNCC4)c3)C2)cc1 [Compound 20, (S)-4-(2-(3-(3-((4-isopropylbenzyl)(methyl)carbamoyl)piperidin-1-yl)phenoxy)-2-methylpropanoyl)piperazin-1-ium chloride] | ≤ 10 µM |
| CCN(Cc1ccc(C(C)C)cc1)C(=O)[C@@H]1CCCN(c2cccc(OC(C)(C)C(=O)N3CCNCC3)c2)C1 [Compound 21, (R)-4-(2-(3-(3-(ethyl(4-isopropylbenzyl)carbamoyl)piperidin-1-yl)phenoxy)-2-methylpropanoyl)piperazin-1-ium chloride] | ≤ 30 µM |
| CCN(Cc1ccc(C(C)C)cc1)C(=O)[C@H]1CCCN(c2cccc(OC(C)(C)C(=O)N3CCNCC3)c2)C1 [Compound 22, (S)-4-(2-(3-(3-(ethyl(4-isopropylbenzyl)carbamoyl)piperidin-1-yl)phenoxy)-2-methylpropanoyl)piperazin-1-ium chloride] | ≤ 30 µM |
| CC(C)c1ccc(CN(C(=O)[C@@H]2CCCN(c3cccc(OC(C)(C)C(=O)N4CCNCC4)c3)C2)C(C)C)cc1 [Compound 23, (R)-4-(2-(3-(3-(isopropyl(4-isopropylbenzyl)carbamoyl)piperidin-1-yl)phenoxy)-2-methylpropanoyl)piperazin-1-ium chloride] | ≤ 10 µM |
| CC(C)c1ccc(CN(C(=O)[C@H]2CCCN(c3cccc(OC(C)(C)C(=O)N4CCNCC4)c3)C2)C(C)C)cc1 [Compound 24, (S)-4-(2-(3-(3-(isopropyl(4-isopropylbenzyl)carbamoyl)piperidin-1-yl)phenoxy)-2-methylpropanoyl)piperazin-1-ium chloride] | ≤ 10 µM |
| CC(C)c1ccc(CN(C(=O)[C@@H]2CCCN(c3cccc(OC(C)(C)C(=O)N4CCNCC4)c3)C2)C2CC2)cc1 [Compound 25, (R)-4-(2-(3-(3-(cyclopropyl(4-isopropylbenzyl)carbamoyl)piperidin-1-yl)phenoxy)-2-methylpropanoyl)piperazin-1-ium chloride] | ≤ 5 µM |
| CC(C)c1ccc(CN(C(=O)[C@H]2CCCN(c3cccc(OC(C)(C)C(=O)N4CCNCC4)c3)C2)C2CC2)cc1 [Compound 26, (S)-4-(2-(3-(3-(cyclopropyl(4-isopropylbenzyl)carbamoyl)piperidin-1-yl)phenoxy)-2-methylpropanoyl)piperazin-1-ium chloride] | ≤ 10 µM |

Same assay, conditions: Table 3, inhibitors 27-43; read-out: Ki

| Compound | Ki |
| --- | --- |
| CC(C)(Oc1cccc(N2CCC[C@@H](C(=O)N(Cc3ccc(C(C)(C)C)cc3)C3CC3)C2)c1)C(=O)N1CCNCC1 [Compound 28, (R)-4-(2-(3-(3-((4-(tert-butyl)benzyl)(cyclopropyl)carbamoyl)piperidin-1-yl)phenoxy)-2-methylpropanoyl)piperazin-1-ium chloride] | ≤ 30 µM |
| CC(C)(Oc1cccc(N2CCC[C@@H](C(=O)N(Cc3ccc(C4CCCCC4)cc3)C3CC3)C2)c1)C(=O)N1CCNCC1 [Compound 29, (R)-4-(2-(3-(3-((4-cyclohexylbenzyl)(cyclopropyl)carbamoyl)piperidin-1-yl)phenoxy)-2-methylpropanoyl)piperazin-1-ium chloride] | ≤ 5 µM |
| CC(C)(Oc1cccc(N2CCC[C@@H](C(=O)N(Cc3ccc(-c4ccccc4)cc3)C3CC3)C2)c1)C(=O)N1CCNCC1 [Compound 31, (R)-4-(2-(3-(3-(([1,1′-biphenyl]-4-ylmethyl)(cyclopropyl)carbamoyl)piperidin-1-yl)phenoxy)-2-methylpropanoyl)piperazin-1-ium chloride] | < 5 µM |
| CC(C)(Oc1cccc(N2CCC[C@@H](C(=O)N(Cc3ccc(-c4ccsc4)cc3)C3CC3)C2)c1)C(=O)N1CCNCC1 [Compound 32, (R)-4-(2-(3-(3-(cyclopropyl(4-(thiophen-3-yl)benzyl)carbamoyl)piperidin-1-yl)phenoxy)-2-methylpropanoyl)piperazin-1-ium chloride] | < 5 µM |
| CC(C)(Oc1cccc(N2CCC[C@@H](C(=O)N(Cc3ccc(-c4ccccn4)cc3)C3CC3)C2)c1)C(=O)N1CCNCC1 [Compound 33, (R)-4-(2-(3-(3-(cyclopropyl(4-(pyridin-2-yl)benzyl)carbamoyl)piperidin-1-yl)phenoxy)-2-methylpropanoyl)piperazin-1-ium chloride] | < 90 µM |
| CC(C)(Oc1cccc(N2CCC[C@@H](C(=O)N(Cc3ccc(-c4ccncc4)cc3)C3CC3)C2)c1)C(=O)N1CCNCC1 [Compound 35, (R)-4-(2-(3-(3-(cyclopropyl(4-(pyridin-4-yl)benzyl)carbamoyl)piperidin-1-yl)phenoxy)-2-methylpropanoyl)piperazin-1-ium chloride] | < 90 µM |
| Cn1cc(-c2ccc(CN(C(=O)[C@@H]3CCCN(c4cccc(OC(C)(C)C(=O)N5CCNCC5)c4)C3)C3CC3)cc2)cn1 [Compound 38, (R)-4-(2-(3-(3-(cyclopropyl(4-(1-methyl-11/-pyrazol-4-yl)benzyl)carbamoyl)piperidin-1-yl)phenoxy)-2-methylpropanoyl)piperazin-1-ium chloride] | ≤ 90 µM |
| Cc1n[nH]cc1-c1ccc(CN(C(=O)[C@@H]2CCCN(c3cccc(OC(C)(C)C(=O)N4CCNCC4)c3)C2)C2CC2)cc1 [Compound 39, (R)-4-(2-(3-(3-(cyclopropyl(4-(3-methyl-1H-pyrazol-4-yl)benzyl)carbamoyl)piperidin-1-yl)phenoxy)-2-methylpropanoyl)piperazin-1-ium chloride] | ≤ 50 µM |
| Cc1n[nH]c(C)c1-c1ccc(CN(C(=O)[C@@H]2CCCN(c3cccc(OC(C)(C)C(=O)N4CCNCC4)c3)C2)C2CC2)cc1 [Compound 40, (R)-4-(2-(3-(3-(cyclopropyl(4-(3,5-dimethyl-1H-pyrazol-4-yl)benzyl)carbamoyl)piperidin-1-yl)phenoxy)-2-methylpropanoyl)piperazin-1-ium chloride] | < 10 µM |
| Cc1noc(C)c1-c1ccc(CN(C(=O)[C@@H]2CCCN(c3cccc(OC(C)(C)C(=O)N4CCNCC4)c3)C2)C2CC2)cc1 [Compound 41, (R)-4-(2-(3-(3-(cyclopropyl(4-(3,5-dimethylisoxazol-4-yl)benzyl)carbamoyl)piperidin-1-yl)phenoxy)-2-methylpropanoyl)piperazin-1-ium chloride] | < 30 µM |
